Data: ChEMBL document CHEMBL5370591, “A Potent and Narrow-Spectrum Antibacterial against Clostridioides difficile Infection” (J Med Chem, 2023)
≈ marks a conversion by molar mass, not a printed value.

How the values were obtained:
[1] = Selectivity ratio of IC50 for human HepG2 cells to MIC for Clostridium difficile ATCC 43255; type: toxicity
HepG2 = assay: Antiproliferative activity against human HepG2 cells assessed as inhibition of cell growth by XTT assay; type: functional, cell-based
Clostridioides difficile [2] = assay: Antibacterial activity against Clostridium difficile ATCC 43255 measured after 48 hrs by two fold serial dilution method; type: functional
[3] = Selectivity ratio of IC50 for human THP-1 cells to MIC for Clostridium difficile ATCC 43255; type: toxicity
THP-1 = assay: Cytotoxicity against human THP-1 cells assessed as increase in LDH release incubate for 24 hrs by trypan-blue staining based analysis; type: functional, cell-based; conditions: THP-1, 24 h
Staphylococcus aureus [4] = assay: Antibacterial activity against Staphylococcus aureus NRS119 assessed as inhibition of bacterial growth by broth microdilution method; type: functional
Staphylococcus aureus [5] = assay: Antibacterial activity against Staphylococcus aureus NRS120 assessed as inhibition of bacterial growth by broth microdilution method; type: functional
Clostridioides difficile [6] = assay: Antibacterial activity against Clostridium difficile 24531 assessed as inhibition of bacterial growth by broth microdilution method; type: functional
[7] = system: Limosilactobacillus reuteri; assay: Antibacterial activity against Lactobacillus reuteri HM-102 assessed as inhibition of bacterial growth by broth microdilution method; type: functional
Clostridioides difficile [8] = assay: Antibacterial activity against Clostridium difficile 26675 assessed as inhibition of bacterial growth by broth microdilution method; type: functional
Clostridioides difficile [9] = assay: Antibacterial activity against Clostridium difficile NR49305 assessed as inhibition of bacterial growth by broth microdilution method; type: functional
Enterococcus faecium [10] = assay: Antibacterial activity against vancomycin susceptible Enterococcus faecium119-39A assessed as inhibition of bacterial growth by broth microdilution method; type: functional; conditions: 119-39A
[11] = system: Staphylococcus epidermidis; assay: Antibacterial activity against Staphylococcus epidermidis ATCC 35547 assessed as inhibition of bacterial growth by broth microdilution method; type: functional
Enterococcus faecium [12] = assay: Antibacterial activity against vancomycin resistant Enterococcus faecium 106 assessed as inhibition of bacterial growth by broth microdilution method; type: functional
Enterococcus faecalis [13] = assay: Antibacterial activity against vancomycin resistant Enterococcus faecalis 99 assessed as inhibition of bacterial growth by broth microdilution method; type: functional
Enterococcus faecium [14] = assay: Antibacterial activity against Enterococcus faecium NCTC 7171 assessed as inhibition of bacterial growth by broth microdilution method; type: functional
Clostridioides difficile [15] = assay: Antibacterial activity against Clostridium difficile NR49318 assessed as inhibition of bacterial growth by broth microdilution method; type: functional
Enterococcus faecalis [16] = assay: Antibacterial activity against vancomycin susceptible Enterococcus faecalis 201 assessed as inhibition of bacterial growth by broth microdilution method; type: functional
Clostridioides difficile [17] = assay: Antibacterial activity against Clostridium difficile NR49310 assessed as inhibition of bacterial growth by broth microdilution method; type: functional
Acinetobacter baumannii = assay: Antibacterial activity against Acinetobacter baumannii ATCC17961 assessed as inhibition of bacterial growth by broth microdilution method; type: functional
Pseudomonas aeruginosa = assay: Antibacterial activity against Pseudomonas aeruginosa ATCC27853 assessed as inhibition of bacterial growth by broth microdilution method; type: functional
Fusobacterium nucleatum = assay: Antibacterial activity against Fusobacterium nucleatum HM-992 assessed as inhibition of bacterial growth by broth microdilution method; type: functional
Clostridioides difficile [18] = assay: Antibacterial activity against Clostridium difficile ATCC 43255 assessed as inhibition of bacterial growth by broth microdilution method; type: functional
Staphylococcus aureus [19] = assay: Antibacterial activity against Staphylococcus aureus NRS100 assessed as inhibition of bacterial growth by broth microdilution method; type: functional
Bacteroides fragilis = assay: Antibacterial activity against Bacteroides fragilis HM-709 assessed as inhibition of bacterial growth by broth microdilution method; type: functional
Streptococcus oralis = assay: Antibacterial activity against Streptococcus oralis ATCC 9811 assessed as inhibition of bacterial growth by broth microdilution method; type: functional
Clostridioides difficile [20] = assay: Antibacterial activity against Clostridium difficile NR49292 assessed as inhibition of bacterial growth by broth microdilution method; type: functional
[21] = system: Staphylococcus haemolyticus; assay: Antibacterial activity against Staphylococcus haemolyticus ATCC 29970 assessed as inhibition of bacterial growth by broth microdilution method; type: functional
Staphylococcus aureus [22] = assay: Antibacterial activity against Staphylococcus aureus ATCC 27660 assessed as inhibition of bacterial growth by broth microdilution method; type: functional
Staphylococcus aureus [23] = assay: Antibacterial activity against Staphylococcus aureus ATCC 29213 assessed as inhibition of bacterial growth by broth microdilution method; type: functional
Staphylococcus aureus [24] = assay: Antibacterial activity against vancomycin-resistant Staphylococcus aureus clinical isolate 1 assessed as inhibition of bacterial growth by broth microdilution method; type: functional
Veillonella = assay: Antibacterial activity against Veillonella HM-49 assessed as inhibition of bacterial growth by broth microdilution method; type: functional
Bacillus licheniformis = assay: Antibacterial activity against Bacillus licheniformis ATCC 12759 assessed as inhibition of bacterial growth by broth microdilution method; type: functional
Eubacterium sp. = assay: Antibacterial activity against Eubacterium sp. HM-178 assessed as inhibition of bacterial growth by broth microdilution method; type: functional
Klebsiella pneumoniae = assay: Antibacterial activity against Klebsiella pneumoniae ATCC700603 assessed as inhibition of bacterial growth by broth microdilution method; type: functional
Escherichia coli = assay: Antibacterial activity against Escherichia coli ATCC25922 assessed as inhibition of bacterial growth by broth microdilution method; type: functional
Clostridioides difficile [25] = assay: Antibacterial activity against Clostridium difficile 23828 assessed as inhibition of bacterial growth by broth microdilution method; type: functional
Clostridioides difficile [26] = assay: Antibacterial activity against Clostridium difficile NR49302 assessed as inhibition of bacterial growth by broth microdilution method; type: functional
Klebsiella aerogenes = assay: Antibacterial activity against Klebsiella aerogenes ATCC35029 assessed as inhibition of bacterial growth by broth microdilution method; type: functional
Streptococcus pyogenes = assay: Antibacterial activity against Streptococcus pyogenes ATCC 49399 assessed as inhibition of bacterial growth by broth microdilution method; type: functional
Staphylococcus aureus [27] = assay: Antibacterial activity against vancomycin-resistant Staphylococcus aureus clinical isolate 2 assessed as inhibition of bacterial growth by broth microdilution method; type: functional
Clostridioides difficile [28] = assay: Antibacterial activity against Clostridium difficile NR49294 assessed as inhibition of bacterial growth by broth microdilution method; type: functional
Enterococcus faecalis [29] = assay: Antibacterial activity against Enterococcus faecalis ATCC 29212 assessed as inhibition of bacterial growth by broth microdilution method; type: functional
Bifidobacterium longum = assay: Antibacterial activity against Bifidobacterium longum HM-846 assessed as inhibition of bacterial growth by broth microdilution method; type: functional
Clostridioides difficile [30] = assay: Antibacterial activity against Clostridium difficile BAA-1870 assessed as inhibition of bacterial growth by broth microdilution method; type: functional
Lactobacillus gasseri = assay: Antibacterial activity against Lactobacillus gasseri HM-644 assessed as inhibition of bacterial growth by broth microdilution method; type: functional
Bacillus cereus = assay: Antibacterial activity against Bacillus cereus ATCC 13061 assessed as inhibition of bacterial growth by broth microdilution method; type: functional

`O=[N+]([O-])c1c[nH]c(-c2nc(-c3ccc(OC4CCC4)cc3)no2)n1` gave a selectivity ratio [1] of 168, an IC50 (HepG2) of 41.9 µg/mL (≈ 128 µM) and an MIC (Clostridioides difficile [2]) of 0.25 µg/mL (≈ 0.764 µM). The selectivity ratio [3] was > 512 and the IC50 (THP-1) was > 128 µg/mL.

With `O=[N+]([O-])c1c[nH]nc1-c1nc(-c2ccc(OC(F)(F)F)cc2)no1` the MIC (Clostridioides difficile [2]) was 4 µg/mL (≈ 11.7 µM), the selectivity ratio [3] was 6 and the IC50 (THP-1) was 25 µg/mL (≈ 73.3 µM).

`Oc1c(F)cc(-c2nc(-c3ccc(Oc4ccc(C(F)(F)F)cc4)cc3)no2)cc1F` showed a selectivity ratio [3] of 4 and an IC50 (THP-1) of 18 µg/mL (≈ 41.4 µM).

For `O=[N+]([O-])c1c[nH]nc1-c1nc(-c2ccc3oc4ccccc4c3c2)no1`, the MIC (Clostridioides difficile [2]) was 4 µg/mL (≈ 11.5 µM) and the selectivity ratio [3] was 2.

Molecule `Oc1ccc(-c2noc(-c3ccc(OC4CCCC4)cc3)n2)cc1` has an MIC (Clostridioides difficile [2]) of 4 µg/mL (≈ 12.4 µM), a selectivity ratio [3] of 2 and an IC50 (THP-1) of 8.5 µg/mL (≈ 26.4 µM).

Work on `Oc1ccc(-c2nc(-c3ccc(Oc4ccc(C(F)(F)F)cc4)cc3)no2)cc1` yielded an MIC (Clostridioides difficile [2]) of 2 µg/mL (≈ 5.02 µM), a selectivity ratio [3] of 9 and an IC50 (THP-1) of 17 µg/mL (≈ 42.7 µM).

`Oc1ccc(-c2nc(-c3ccc(OC4CCCC4)cc3)no2)cc1` gave an MIC (Staphylococcus aureus [4]) of 1 µg/mL (≈ 3.1 µM), an MIC (Staphylococcus aureus [5]) of 2 µg/mL (≈ 6.2 µM) and an MIC (Clostridioides difficile [6]) of 4 µg/mL (≈ 12.4 µM). For the same molecule, the MIC [7] was > 128 µg/mL, the MIC (Clostridioides difficile [8]) was 4 µg/mL (≈ 12.4 µM) and the MIC (Clostridioides difficile [9]) was 2 µg/mL (≈ 6.2 µM). For the same molecule, the MIC (Enterococcus faecium [10]) was 2 µg/mL (≈ 6.2 µM), the MIC [11] was 2 µg/mL (≈ 6.2 µM) and the MIC (Enterococcus faecium [12]) was 2 µg/mL (≈ 6.2 µM). For the same molecule, the MIC (Enterococcus faecalis [13]) was 4 µg/mL (≈ 12.4 µM), the MIC (Enterococcus faecium [14]) was 4 µg/mL (≈ 12.4 µM) and the MIC (Clostridioides difficile [15]) was 4 µg/mL (≈ 12.4 µM). The MIC (Enterococcus faecalis [16]) was 4 µg/mL (≈ 12.4 µM), the MIC (Clostridioides difficile [17]) was 4 µg/mL (≈ 12.4 µM) and the MIC (Acinetobacter baumannii) was > 128 µg/mL. For the same molecule, the MIC (Pseudomonas aeruginosa) was > 128 µg/mL, the MIC (Fusobacterium nucleatum) was 2 µg/mL (≈ 6.2 µM) and the MIC (Clostridioides difficile [18]) was 2 µg/mL (≈ 6.2 µM). For the same molecule, the MIC (Staphylococcus aureus [19]) was 1 µg/mL (≈ 3.1 µM), the MIC (Bacteroides fragilis) was 2 µg/mL (≈ 6.2 µM) and the MIC (Streptococcus oralis) was > 128 µg/mL. The MIC (Clostridioides difficile [20]) was 2 µg/mL (≈ 6.2 µM), the MIC [21] was 2 µg/mL (≈ 6.2 µM) and the MIC (Staphylococcus aureus [22]) was 2 µg/mL (≈ 6.2 µM). The MIC (Staphylococcus aureus [23]) was 2 µg/mL (≈ 6.2 µM), the MIC (Staphylococcus aureus [24]) was 2 µg/mL (≈ 6.2 µM) and the MIC (Veillonella) was > 128 µg/mL. For the same molecule, the MIC (Bacillus licheniformis) was 4 µg/mL (≈ 12.4 µM), the MIC (Eubacterium sp.) was 4 µg/mL (≈ 12.4 µM) and the MIC (Klebsiella pneumoniae) was > 128 µg/mL. The IC50 (THP-1) was 18 µg/mL (≈ 55.8 µM), the MIC (Escherichia coli) was > 128 µg/mL and the MIC (Clostridioides difficile [25]) was 4 µg/mL (≈ 12.4 µM). The MIC (Clostridioides difficile [26]) was 2 µg/mL (≈ 6.2 µM), the MIC (Klebsiella aerogenes) was > 128 µg/mL and the MIC (Streptococcus pyogenes) was > 128 µg/mL. For the same molecule, the MIC (Staphylococcus aureus [27]) was 2 µg/mL (≈ 6.2 µM), the MIC (Clostridioides difficile [28]) was 2 µg/mL (≈ 6.2 µM) and the MIC (Enterococcus faecalis [29]) was 4 µg/mL (≈ 12.4 µM). The MIC (Bifidobacterium longum) was 1 µg/mL (≈ 3.1 µM), the MIC (Clostridioides difficile [30]) was 2 µg/mL (≈ 6.2 µM) and the MIC (Lactobacillus gasseri) was > 128 µg/mL. It also gave an MIC (Bacillus cereus) of 2 µg/mL (≈ 6.2 µM).
